Values after ≈ are worked out from the molar mass of the structure shown. Read-outs that look alike come from different tables or passages of the source.

From article PMC9108603, “Microbial Metabolite Inspired β‐Peptide Polymers Displaying Potent and Selective Antifungal Activity” (Advanced Science, 2022) come the findings set out here.

One series deals with C. neoformans. Briefly: MFC assay, plating after the MIC test. Further: kills > 99.9%. The format is cell-based. Particulars: Cryptococcus neoformans, 48 h. Here is the method: (§1) In vitro antifungal assays. The MIC assays for C. albicans (K1, SC5314, Gu5, ATCC90028, R01, R02, R03 and R04 strains) and C. neoformans (H99, MYA737 and JEC21 strains) were conducted according to a previously described protocol. The cultured fungal cells were collected at 2.5 × 10^3 CFU/mL in RPMI 1640 medium to give the working suspension. Two- […]
(§2) Then 50 µL of the cell suspension was added to each well. Wells containing cells in RPMI without any polymer or antifungal drug were used as drug-free controls, and wells containing RPMI medium only were used as cell-free controls. The plate was gently stirred for 10 seconds and then incubated at 30 °C. After C. albicans and C. neoformans cells were incubated for 24 h and 48 h, respectively, fungal cell growth was checked visually. The MIC values were identified as the lowest concentration […]
(§3) The MFC assay for Candida and Cryptococcus was conducted after the MIC test.
(§4) An aliquot of 3 µL premixed suspension from each well was plated on the yeast extract-peptone-dextrose (YPD) agar. The plates were incubated at 30 °C for 24 h and 48 h, respectively, for C. albicans cells and C. neoformans cells. Then the plate was inspected visually for colony formation. […]

The subject of another series is C. albicans. Nature of the series: MFC assay, plating after the MIC test. Further: kills > 99.9%. The format is cell-based. Particulars: Candida albicans. Here is the method:
as §1, §2, §3, §4

In a further series the test system is C. albicans (K1 strain). Nature of the series: DNA fragmentation assay (TUNEL). Type of series: cell-based, Candida albicans. Particulars: 50 μg/mL PDAP20, 8 h, 3.0 × 10^6 CFU/mL; late stage of apoptosis. Here is the method: NAC concentration without affecting the normal cell growth. Wells containing cells in RPMI and 40 mM H 2O2 was used as positive controls. Cell suspension of C. albicans (K1 strain) at 6.0 × 10^6 CFU/mL was treated with 20 μM 2,7-dichlorodi-hydrofluorescein diacetate (DCFHDA) for 20 min. Then 50 µL of the cell suspension was added to each well, except the blank control (RMPI containing DCFHDA without cells). The fluorescence intensity of the induced ROS production was measured every 30 min using a plate reader at λ ex = 485 nm and λem = 530 nm. […]
Detection of mitochondrial membrane potential. Changes in mitochondrial membrane potential in C. albicans after incubation with PDAP 20 were analyzed using JC-1 as previously described. Mitochondrial membrane potential was detected with the fluorescent dye JC-1, which exists as aggregates (red) in normal cells with polarized mitochondria, whereas exists as monomers (green) in apoptotic cells with depolarized mitochondria. […]
DNA fragmentation assay. Apoptosis induced DNA fragments in C. albicans cells were analyzed using the TdT-mediated dUTP Nick-End Labeling (TUNEL) method. […]
fresh non-treated cell suspension was used as a control. The bright field and FITC fluorescence were collected under 100× oil immersion lenses, with representative areas in the images electronically amplified sixfold. […]

A further series has as its system BALB/c mice eyes. The format is in vivo, mouse. Particulars: 15 mg mL^−1 eye drops every 5 min for 1 h, then every 30 min for 7 h; male BALB/c, n = 3. Here is the method:
Medicine (Accreditation number of the laboratory: SHDSYY-2021-1729). The experiment
method. […] AmpB was
(2.5% DMSO in final solution).
The organs (kidney, liver, and
14th day for histological analysis and blood biochemistry analysis.
30 min during the next 7 h.
C. albicans biofilm formation on contact lenses. The contact lenses (Biomedic ®, Cooper
Then the discs were transferred to a
and incubated at rt with shaking at 100 rpm. After 6 hours of incubation, the suspension was […]

Consider `C[C@@H]1[C@H](O)[C@@H](C)/C=C/C=C/C=C/C=C/C=C/C=C/C=C/[C@H](O[C@@H]2O[C@H](C)[C@@H](O)[C@H](N)[C@@H]2O)C[C@@H]2O[C@](O)(C[C@@H](O)C[C@@H](O)[C@H](O)CC[C@@H](O)C[C@@H](O)CC(=O)O[C@H]1C)C[C@H](O)[C@H]2C(=O)O` [AmpB, amphotericin B], for which the MFC with C. neoformans (read-out: MFC C. neoformans JEC21) was 1.6 µg/mL (≈ 1.73 µM); in the series with C. neoformans (read-out: MFC C. neoformans MYA737) it was 1.6 µg/mL (≈ 1.73 µM); with C. albicans (24 h, read-out: MFC C. albicans R01), 1.6 µg/mL (≈ 1.73 µM); with C. albicans (24 h, read-out: MFC C. albicans R03), 1.6 µg/mL (≈ 1.73 µM); in the series with C. albicans (ATCC90028, 24 h, read-out: MFC C. albicans ATCC90028), 1.6 µg/mL (≈ 1.73 µM); with C. albicans (SC5314, 24 h, read-out: MFC C. albicans SC5314), 1.6 µg/mL (≈ 1.73 µM).
Regarding poly(DL‐diaminopropionic acid) [PDAP20], in the series on C. albicans (K1 strain), the “DNA fragmentation, TUNEL” value is listed as “strong green cytosol fluorescence”. Moreover, the “Corneal histology (H&E) after topical administration” value with BALB/c mice eyes is recorded as “no obvious toxicity”.
